Results reported in US5604262A, “Topical antimicrobial agents” (Research Corporation Technologies, Inc., priority 1995, dated 1997).
Converted amounts (≈) assume the structure as drawn.

Key:
fungi = conditions: Moleyar et al. 1986; cited from earlier work
[1] = test system: Streptococus mutans ATCC 25175; experiment: MIC by two-fold serial broth dilution; type: cell-based; conditions: S. mutans; for MIC: Streptococcus mutans, ATCC25175, 48 h, brain heart infusion broth, two days, turbidity OD 660 nm
From the text: (§1) The microorganisms tested were from the American Type Culture Collection (Rockville, Md.). They are Bacillus subtilis ATCC 9372, Brevibacterium ammoniagenes ATCC 6872, Staphylococcus aureus ATCC 12598, Streptococus mutans ATCC 25175, Propionibacterium acnes ATCC 11827, Pseudimonas aeruginosa ATCC 10145, Enterobacter aerogenes ATCC 13048, Eschericia coli ATCC 9637, Proteus vulgaris ATCC […], Saccharomyces cerevisiae ATCC 7754, Candida utilis ATCC 9226, Pityrosporum ovale ATCC 14521, Penicillium chrysogenum ATCC 10106 and Trichophyton mentagrophytes ATCC 18748.
(§2) The bacterial culture media except for S. mutans was 0.8% nutrient broth (BBL), 0.5% yeast Extract (Difco) and 0.1% glucose (NYG broth). S. mutans was cultured in 3.7% brain heart infixsion broth (Difco). All fungi, except P. ovale and T. mentagrophytes were cultured in a 2.5% malt extract broth (BBL). P. ovale was cultured in 1% bactopeptone (Difco), 0.5% yeast extract, 1% glucose and 0.1% corn oil. For T. mentagrophytes the culture media was 1% bactopeptone and 4% glucose.
(§3) Freeze dried samples were prepared for testing as follows. B. subtilis, S. cerevisiae, C. utilis, and P. ovale, were shake-cultured for two days at 30° C. P. chrysogenum and T. mentagrophytes were shake-cultured for 5 days at 30° C. B. ammoniagenes and E. aerogenes were stationarily cultured at 30° C. S. aureus, S. mutans, P. acnes, P. aeruginosa, E. coli and P. vulgaris were stationarily cultured at 37° C.
(§4) The minimum inhibitory concentration (MIC) of the 3-alken-2-ones (compounds 1-4, 6-8) and 3,13-tetradecadien-2-one (compound 5) was performed using a two-fold serial broth dilution. Each test compound was dissolved in DMF and 30 μL of this sample was dissolved in 3 mL of the applicable medium. A 30 μL sample of the previously described culture of each microorganism was added to the various medium solutions. After two days, the cultures of B. subtilis, S. cerevisiae, C. utilis B. ammoniagenes, E. aerogenes, S. aureus, S. mutans, P. acnes, P. aeruginosa, E. coli and P. vulgaris were examined for turbidity (OD at 660 nm). The fungi, P. ovale, P. chrysogenum and T. mentagrophytes, were examined visually for growth at 3 days (P. ovale) and 5 days (P. chrysogenum and T. mentagrophytes). The MIC was determined as the lowest concentration for each compound that no growth was observed. The highest concentration used in these tests was 800 μg/mL.

[2] = test system: Bacillus subtilis ATCC 9372; experiment: MIC by two-fold serial broth dilution; type: cell-based; conditions: B. subtilis; for MIC: Bacillus subtilis, ATCC9372, 48 h, NYG broth, two days, turbidity OD 660 nm
From the text: as §1, §2, §3, §4

[3] = test system: Trichophyton mentagrophytes ATCC 18748; experiment: MIC by two-fold serial broth dilution; type: cell-based; conditions: ATCC18748, 120 h, T. mentagrophytes, bactopeptone/glucose, 5 days, visual
From the text: as §1, §2, §3, §4

[4] = test system: Proteus vulgaris ATCC 133315; experiment: MIC by two-fold serial broth dilution; type: cell-based; conditions: ATCC133315, 48 h, P. vulgaris, NYG broth, two days, turbidity OD 660 nm
From the text: as §1, §2, §3, §4

[5] = test system: Brevibacterium ammoniagenes ATCC 6872; experiment: MIC by two-fold serial broth dilution; type: cell-based; conditions: B. ammoniagenes; for MIC: Corynebacterium ammoniagenes, ATCC6872, 48 h, NYG broth, two days, turbidity OD 660 nm
From the text: as §1, §2, §3, §4

[6] = test system: Enterobacter aerogenes ATCC 13048; experiment: MIC by two-fold serial broth dilution; type: cell-based; conditions: E. aerogenes; for MIC: Klebsiella aerogenes, ATCC13048, 48 h, NYG broth, two days, turbidity OD 660 nm
From the text: as §1, §2, §3, §4

[7] = test system: Propionibacterium acnes ATCC 11827; experiment: MIC by two-fold serial broth dilution; type: cell-based; conditions: P. acnes; for MIC: Cutibacterium acnes, ATCC11827, 48 h, NYG broth, two days, turbidity OD 660 nm
From the text: as §1, §2, §3, §4

[8] = test system: Pseudimonas aeruginosa ATCC 10145; experiment: MIC by two-fold serial broth dilution; type: cell-based; conditions: P. aeruginosa; for MIC: Pseudomonas aeruginosa, ATCC10145, 48 h, NYG broth, two days, turbidity OD 660 nm
From the text: as §1, §2, §3, §4

[9] = test system: Pityrosporum ovale ATCC 14521; experiment: MIC by two-fold serial broth dilution; type: cell-based; conditions: P. ovale; for MIC: 72 h, bactopeptone/yeast extract/glucose/corn oil, 3 days, visual
From the text: as §1, §2, §3, §4

[10] = test system: Eschericia coli ATCC 9637; experiment: MIC by two-fold serial broth dilution; type: cell-based; conditions: E. coli; for MIC: Escherichia coli, ATCC9637, 48 h, NYG broth, two days, turbidity OD 660 nm
From the text: as §1, §2, §3, §4

[11] = test system: Saccharomyces cerevisiae ATCC 7754; experiment: MIC by two-fold serial broth dilution; type: cell-based; conditions: S. cerevisiae; for MIC: Saccharomyces cerevisiae, ATCC7754, 48 h, malt extract broth, two days, turbidity OD 660 nm
From the text: as §1, §2, §3, §4

[12] = test system: Penicillium chrysogenum ATCC 10106; experiment: MIC by two-fold serial broth dilution; type: cell-based; conditions: P. chrysogenum; for MIC: Penicillium chrysogenum, ATCC10106, 120 h, malt extract broth, 5 days, visual
From the text: as §1, §2, §3, §4

[13] = test system: Staphylococcus aureus ATCC 12598; experiment: MIC by two-fold serial broth dilution; type: cell-based; conditions: S. aureus; for MIC: Staphylococcus aureus, ATCC12598, 48 h, NYG broth, two days, turbidity OD 660 nm
From the text: as §1, §2, §3, §4

Candia utilis ATCC 9226 = experiment: MIC by two-fold serial broth dilution; type: cell-based, Candida utilis; conditions: C. utilis; for MIC: Williopsis jadinii, ATCC9226, 48 h, malt extract broth, two days, turbidity OD 660 nm
From the text: as §1, §2, §3, §4

[14] = test system: bacteria and fungi in the test, except S. mutans and P. acnes; experiment: MIC test, all bacteria and fungi except S. mutans and P. acnes; type: cell-based; conditions: all of the bacteria and fungi in the test
From the text: as §1, §2
Freeze dried samples were prepared for testing as follows. […]
The minimum inhibitory concentration (MIC) of the 3-alken-2-ones (compounds 1-4, 6-8) and 3,13-tetradecadien-2-one (compound 5) was performed using a two-fold serial broth dilution. […] The MIC was determined as the lowest concentration for each compound that no growth was observed. […]

C=C(C)C1CC=C(C)C(=O)C1 (stereo not drawn) [Carvone]
antifungal activity (in words) (fungi): antifungal activity

CCCCCCC/C=C/C(C)=O [Compound 1, (E)-3-Undecen-2-one]
MIC [1]: 100 µg/mL (≈ 594 µM) | MIC [2]: 100 µg/mL (≈ 594 µM) | MIC [3]: 100 µg/mL (≈ 594 µM) | MIC [4]: 50 µg/mL (≈ 297 µM) | MIC [5]: 200 µg/mL (≈ 1190 µM) | MIC [6]: > 800 µg/mL | MIC [7]: 50 µg/mL (≈ 297 µM) | MIC [8]: > 800 µg/mL | MIC [9]: 100 µg/mL (≈ 594 µM) | MIC [10]: > 800 µg/mL | MIC [11]: 800 µg/mL (≈ 4750 µM) | MIC [12]: 100 µg/mL (≈ 594 µM) | MIC [13]: 200 µg/mL (≈ 1190 µM) | MIC (Candia utilis ATCC 9226): 50 µg/mL (≈ 297 µM)

CCCCCCCC/C=C/C(C)=O [Compound 2, (E)-3-Dodecen-2-one]
MIC [1]: 50 µg/mL (≈ 274 µM) | MIC [2]: 100 µg/mL (≈ 549 µM) | MIC [3]: 100 µg/mL (≈ 549 µM) | MIC [4]: 50 µg/mL (≈ 274 µM) | MIC [5]: 100 µg/mL (≈ 549 µM) | MIC [6]: > 800 µg/mL | MIC [7]: 25 µg/mL (≈ 137 µM) | MIC [8]: > 800 µg/mL | MIC [9]: 100 µg/mL (≈ 549 µM) | MIC [10]: > 800 µg/mL | MIC [11]: 800 µg/mL (≈ 4390 µM) | MIC [12]: 100 µg/mL (≈ 549 µM) | MIC [13]: 100 µg/mL (≈ 549 µM) | MIC (Candia utilis ATCC 9226): 400 µg/mL (≈ 2190 µM)

CCCCCCCCC/C=C/C(C)=O [Compound 3, (E)-3-Tridecen-2-one]
activity (in words) [1]: showed activity | MIC [1]: 25 µg/mL (≈ 127 µM) | activity (in words) [2]: showed activity | MIC [2]: 100 µg/mL (≈ 509 µM) | MIC [3]: 25 µg/mL (≈ 127 µM) | MIC [4]: 800 µg/mL (≈ 4070 µM) | activity (in words) [5]: showed activity | MIC [5]: 100 µg/mL (≈ 509 µM) | activity (in words) [6]: not active | MIC [6]: > 800 µg/mL | MIC [7]: 12.5 µg/mL (≈ 63.7 µM) | activity (in words) [7]: showed activity | activity (in words) [8]: not active | MIC [8]: > 800 µg/mL | MIC [9]: 100 µg/mL (≈ 509 µM) | activity (in words) [9]: moderate inhibition | activity (in words) [10]: not active | MIC [10]: > 800 µg/mL | activity (in words) [11]: no activity | MIC [11]: > 800 µg/mL | activity (in words) [12]: Weak activity | MIC [12]: 800 µg/mL (≈ 4070 µM) | activity (in words) [13]: showed activity | MIC [13]: 50 µg/mL (≈ 255 µM) | activity (in words) (Candia utilis ATCC 9226): no activity | MIC (Candia utilis ATCC 9226): > 800 µg/mL

CCCCCCCCCC/C=C/C(C)=O [Compound 4, (E)-3-Tetradecen-2-one]
activity (in words) [1]: showed activity | MIC [1]: 25 µg/mL (≈ 119 µM) | MIC [2]: > 800 µg/mL | MIC [3]: 12.5 µg/mL (≈ 59.4 µM) | MIC [4]: > 800 µg/mL | MIC [5]: > 800 µg/mL | activity (in words) [6]: not active | MIC [6]: > 800 µg/mL | MIC [7]: 12.5 µg/mL (≈ 59.4 µM) | activity (in words) [7]: showed activity | activity (in words) [8]: not active | MIC [8]: > 800 µg/mL | MIC [9]: 100 µg/mL (≈ 475 µM) | activity (in words) [9]: moderate inhibition | activity (in words) [10]: not active | MIC [10]: > 800 µg/mL | activity (in words) [11]: no activity | MIC [11]: > 800 µg/mL | activity (in words) [12]: Weak activity | MIC [12]: 800 µg/mL (≈ 3800 µM) | MIC [13]: > 800 µg/mL | activity (in words) (Candia utilis ATCC 9226): no activity | MIC (Candia utilis ATCC 9226): > 800 µg/mL

C=CCCCCCCCC/C=C/C(C)=O [Compound 5, (E)-3,13-Tetradecadien-2-one]
MIC [1]: 25 µg/mL (≈ 120 µM) | MIC [2]: > 800 µg/mL | MIC [3]: 12.5 µg/mL (≈ 60 µM) | MIC [4]: > 800 µg/mL | MIC [5]: > 800 µg/mL | MIC [6]: > 800 µg/mL | MIC [7]: 12.5 µg/mL (≈ 60 µM) | MIC [8]: > 800 µg/mL | MIC [9]: 200 µg/mL (≈ 960 µM) | MIC [10]: > 800 µg/mL | MIC [11]: > 800 µg/mL | MIC [12]: 800 µg/mL (≈ 3840 µM) | MIC [13]: > 800 µg/mL | MIC (Candia utilis ATCC 9226): > 800 µg/mL

CCCCCCCCCCC/C=C/C(C)=O [Compound 6, (E)-3-Pentadecen-2-one]
MIC [1]: 200 µg/mL (≈ 891 µM) | MIC [2]: > 800 µg/mL | MIC [3]: 800 µg/mL (≈ 3570 µM) | MIC [4]: > 800 µg/mL | MIC [5]: > 800 µg/mL | MIC [6]: > 800 µg/mL | MIC [7]: 6.25 µg/mL (≈ 27.9 µM) | MIC [8]: > 800 µg/mL | MIC [9]: 400 µg/mL (≈ 1780 µM) | MIC [10]: > 800 µg/mL | MIC [11]: > 800 µg/mL | MIC [12]: > 800 µg/mL | MIC [13]: > 800 µg/mL | MIC (Candia utilis ATCC 9226): > 800 µg/mL

CCCCCCCCCCCC/C=C/C(C)=O [Compound 7, (E)-3-Hexadecen-2-one]
activity (in words) [1]: weakly active | MIC [1]: 400 µg/mL (≈ 1680 µM) | MIC [2]: > 800 µg/mL | MIC [3]: > 800 µg/mL | MIC [4]: > 800 µg/mL | MIC [5]: > 800 µg/mL | MIC [6]: > 800 µg/mL | MIC [7]: 3.13 µg/mL (≈ 13.1 µM) | activity (in words) [7]: strong activity | MIC [8]: > 800 µg/mL | MIC [9]: > 800 µg/mL | MIC [10]: > 800 µg/mL | MIC [11]: > 800 µg/mL | MIC [12]: > 800 µg/mL | MIC [13]: > 800 µg/mL | MIC (Candia utilis ATCC 9226): > 800 µg/mL | activity (in words) [14]: inactive
